Patent publication US6060482A, “Triazaspirodecanone-methylchromans” (Bayer Aktiengesellschaft, priority 1991, dated 2000)
Where a name gives a salt, the structure may show the parent alone.

How the values were obtained:
5-HT1 receptor = test: Affinity for the 5-HT1 receptor, receptor binding studies with 3H-serotonin on calf hippocampus membrane preparations
From the text: Affinity for the 5-HT1 receptor
In Table 1, the high affinity of the compounds according to the invention for 5-hydroxytryptamine receptors of the subtype 1 is represented by way of example. The values given are data which have been determined from receptor binding studies using calf hippocampus membrane preparations. The radioactively labelled ligand used for this was ^3 H-serotonin.

dopamine D2 receptor = molecular target: T1, dopamine D2 receptor (Rattus norvegicus, UniProt P61169); test: Dopamine D2 receptor test, binding of 3H-sulpiride on membranes from the striatum of the rat; details: Ki calculated from IC50 of displacement curves
T1 construct: membranes from the striatum of the rat; from tissue; host or cells: rat striatum membranes
T1 sequence (P61169 whole entry): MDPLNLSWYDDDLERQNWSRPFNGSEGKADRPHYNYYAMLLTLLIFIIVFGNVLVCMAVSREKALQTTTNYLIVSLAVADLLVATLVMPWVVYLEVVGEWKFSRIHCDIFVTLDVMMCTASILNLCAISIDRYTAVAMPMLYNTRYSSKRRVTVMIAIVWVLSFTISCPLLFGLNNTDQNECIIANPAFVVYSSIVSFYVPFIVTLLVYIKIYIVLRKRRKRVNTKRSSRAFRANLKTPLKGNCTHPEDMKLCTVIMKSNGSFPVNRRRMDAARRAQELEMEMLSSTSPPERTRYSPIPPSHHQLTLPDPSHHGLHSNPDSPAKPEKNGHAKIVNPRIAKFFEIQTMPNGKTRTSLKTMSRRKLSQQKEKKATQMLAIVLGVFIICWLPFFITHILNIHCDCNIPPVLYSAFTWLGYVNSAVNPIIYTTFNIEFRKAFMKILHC
Experimental: Dopamine D2 receptor test
This test is carried out according to the following reference: Imafuku J. (1987), Brain Research 402; 331-338.
In this test, the binding of the selective D2 -receptor antagonist ^3 H-sulpiride on membranes from the striatum of the rat is measured. Compounds which bind to dopamine D2 -receptors inhibit the binding of ^3 H-sulpiride in a concentration-dependent manner. IC50 values are determined from the displacement curves and the inhibition constants Ki are calculated from these.

5-HT1A receptor = molecular target: T2, 5-HT1A receptor (Bos taurus, UniProt F6Q2H9); test: Affinity for the 5-HT1A receptor, binding of 3H-ipsapirone in calf hippocampus membranes
T2 construct: 5-HT1A receptors in calf hippocampus membranes; from tissue; host or cells: calf hippocampus membranes
T2 sequence (F6Q2H9 1-422): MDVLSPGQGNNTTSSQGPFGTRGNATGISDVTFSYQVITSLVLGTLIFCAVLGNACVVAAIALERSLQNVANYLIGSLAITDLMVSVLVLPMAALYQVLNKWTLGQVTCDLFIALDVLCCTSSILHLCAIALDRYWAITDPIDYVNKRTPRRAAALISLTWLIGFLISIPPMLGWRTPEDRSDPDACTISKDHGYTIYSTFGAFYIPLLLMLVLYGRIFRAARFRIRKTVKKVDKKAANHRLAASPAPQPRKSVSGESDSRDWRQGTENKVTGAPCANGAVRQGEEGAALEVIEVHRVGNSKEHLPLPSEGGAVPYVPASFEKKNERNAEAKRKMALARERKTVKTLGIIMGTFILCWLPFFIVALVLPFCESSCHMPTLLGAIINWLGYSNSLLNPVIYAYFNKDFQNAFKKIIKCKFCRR
Experimental: Affinity for the 5-HT1A receptor
[W. U. Dompert et al., Naunyn-Schmiedeberg's Arch. Pharmacol. (1985), 328, 467-470].
In this test, the binding of ^3 H-ipsapirone to 5-HT1A receptors in calf hippocampus membranes is measured.

| SMILES | Ki (5-HT1 receptor) | Ki (dopamine D2 receptor) | Ki (5-HT1A receptor) |
| --- | --- | --- | --- |
| O=C1NCN(c2ccccc2)C12CCN(CC1CCc3ccccc3O1)CC2 (centres unmarked) [Example 1, 8-(Chroman-2-yl-methyl)-1-phenyl-1,3,8-triazaspiro[4.5]-decan-4-one] | 2 nM | 0.2 nM |  |
| COc1cccc2c1OC(CN1CCC3(CC1)C(=O)NCN3c1ccccc1)CC2 (centres unmarked) [Example 2] | 1.5 nM | 0.3 nM |  |
| O=C1NCN(c2ccccc2)C12CCN(C[C@@H]1CCc3ccccc3O1)CC2 [Example 3] |  | 0.6 nM |  |
| O=C1NCN(c2ccccc2)C12CCN(C[C@H]1CCc3ccccc3O1)CC2 [Example 4] | 1 nM |  |  |
| O=C1NCN(c2ccccc2)C12CCN(CC1CCc3ccccc3O1)CC2 (centres unmarked) [Example 5, 8-(Chroman-2-yl-methyl)-1-phenyl-1,3,8-triazaspiro[4.5]-decan-4-one HCl salt] |  |  | 1 nM |
| COc1cccc2c1OC(CN1CCC3(CC1)C(=O)NCN3c1ccccc1)CC2 (centres unmarked) [Example 6] |  |  | 1 nM |
